From patent US11767330B2, “Citrate salt, pharmaceutical compositions, and methods of making and using the same” (Foghorn Therapeutics Inc., priority 2021, dated 2023)

Assays:
[1] = test system: SYO-1 human biphasic synovial sarcoma tumor cells; experiment: SYO-1 xenograft tumor growth (Example 11); type: in vivo; conditions: 1 mg/kg, i.p., daily, 3 weeks, NOD SCID mice
Procedure: (§1) Method: NOD SCID mice (Beijing Anikeeper Biotech, Beijing) were inoculated subcutaneously on the right flank with the single cell suspension of SYO-1 human biphasic synovial sarcoma tumor cells (5×106) in 100 μL Dulbecco's Modified Eagle Medium (DMEM) with 10% fetal bovine serum (FBS). The mice were randomized into either control group [10% dimethyl sulfoxide (DMSO), 40% polyethylene glycol (PEG400) and 50% water], or treatment group D1 when the mean tumor size reached about 117 mm^3. Mice were dosed daily through intraperitoneal (i.p.) route over the course of 3 weeks. All dose volumes were adjusted by body weights in terms of mg/kg.

[2] = Tolerability by % body weight change (Example 11); type: in vivo; conditions: 1 mg/kg, i.p., daily, 3 weeks
Procedure: as §1

## COc1cc(-c2cn(C)c(=O)c3cnc(N4CCC4)cc23)cc(OC)c1CN1CCC(CN2CCC3(CC2)CN(c2ccc4c(c2)C(=O)N(C2CCC(=O)NC2=O)C4)C3)CC1 (racemic) [Compound D1, 3-[6-(7-[[1-([4-[6-(azetidin-1-yl)-2-methyl-1-oxo-2,7-naphthyridin-4-yl]-2,6-dimethoxyphenyl]methyl)piperidin-4-yl]methyl]-2,7-diazaspiro[3.5]nonan-2-yl)-1-oxo-3H-isoindol-2-yl]piperidine-2,6-dione]
[1]
  tumor growth: tumor growth inhibition
[2]
  tolerability based on % body weight change: well tolerated
